The values that follow come from ChEMBL document CHEMBL1201862, “PubChem BioAssay data set” (2004).

The target of test [1] is T1, Eukaryotic translation initiation factor 2-alpha kinase 3 (Homo sapiens, UniProt Q9NZJ5). Description: Dose response cell-based high-throughput screening assay to measure PERK inhibition. [Related pubchem assays: 1416 ]. In kind it is functional.
Test [2] deals with T1, Eukaryotic translation initiation factor 2-alpha kinase 3. Description: Counterscreen assay for PERK inhibitors: Dose response cell-based high throughput screening assay to measure inhibition of PERK at 6 hours. [Related pubchem assays: 1522, 1416 ]. In kind it is functional.
For test [3], the target named is T2, Alkaline phosphatase, tissue-nonspecific isozyme (Homo sapiens, UniProt P05186).
T2 sequence (P05186 whole entry): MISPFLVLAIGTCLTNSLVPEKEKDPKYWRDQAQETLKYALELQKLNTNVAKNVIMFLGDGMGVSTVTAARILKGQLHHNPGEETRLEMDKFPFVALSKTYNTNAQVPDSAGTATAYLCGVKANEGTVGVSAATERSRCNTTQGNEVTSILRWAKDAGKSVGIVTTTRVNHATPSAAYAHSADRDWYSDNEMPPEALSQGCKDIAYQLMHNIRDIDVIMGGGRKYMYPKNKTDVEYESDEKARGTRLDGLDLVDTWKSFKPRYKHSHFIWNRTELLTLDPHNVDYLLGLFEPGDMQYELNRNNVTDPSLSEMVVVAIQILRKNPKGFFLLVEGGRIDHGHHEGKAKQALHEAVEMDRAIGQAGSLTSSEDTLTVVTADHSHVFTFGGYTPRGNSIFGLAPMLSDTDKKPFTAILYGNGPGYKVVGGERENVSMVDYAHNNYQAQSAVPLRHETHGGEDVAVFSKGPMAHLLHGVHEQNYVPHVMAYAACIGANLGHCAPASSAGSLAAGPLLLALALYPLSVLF

Test [4] addresses T3, Rac GTPase-activating protein 1 (Homo sapiens, UniProt Q9H0H5).
T3 sequence (Q9H0H5 whole entry): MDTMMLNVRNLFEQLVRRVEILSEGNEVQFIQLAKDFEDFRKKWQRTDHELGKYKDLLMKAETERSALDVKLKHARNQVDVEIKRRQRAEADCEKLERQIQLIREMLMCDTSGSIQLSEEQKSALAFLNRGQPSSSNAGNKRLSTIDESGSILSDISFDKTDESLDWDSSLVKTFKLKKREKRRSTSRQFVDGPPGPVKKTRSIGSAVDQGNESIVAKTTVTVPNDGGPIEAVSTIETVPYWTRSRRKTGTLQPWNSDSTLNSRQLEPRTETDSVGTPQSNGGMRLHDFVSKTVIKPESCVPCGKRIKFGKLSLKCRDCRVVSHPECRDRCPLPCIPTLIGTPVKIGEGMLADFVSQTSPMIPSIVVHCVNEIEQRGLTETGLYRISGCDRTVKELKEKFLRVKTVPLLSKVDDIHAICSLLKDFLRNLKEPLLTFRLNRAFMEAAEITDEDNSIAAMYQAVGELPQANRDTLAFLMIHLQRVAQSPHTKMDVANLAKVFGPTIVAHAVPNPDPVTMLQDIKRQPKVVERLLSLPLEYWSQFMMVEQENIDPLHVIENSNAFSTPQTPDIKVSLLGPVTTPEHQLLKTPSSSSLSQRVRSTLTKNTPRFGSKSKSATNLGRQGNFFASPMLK
Description: MgcRacGAP GTPase-activating activity inhibitors, confirmation, biochemical, ADP Hunter fluorescence, primary and confirmatory (AID 624330). In kind it is functional.

Test [5] can be described thus: HeLa cell cytotoxicity, dose response, cytotoxicity control for MgcRacGAP inhibitor project (AID 624300). The class given is functional.
A short description of test [6]: polyadenylation inhibitors in yeast reporter, dose response, luminescence, S. cerevisiae SKY197-pL101 (AID 2525). The class given is functional, cell-based.
The next test concerns the target Troponin, cardiac muscle (Homo sapiens, UniProt P19429+P45379+P63316). The experiment in a line: Fluorescence-based biochemical high throughput dose response assay for activators of the calcium sensitivity of cardiac Regulated Thin Filaments (RTF). [Related pubchem assays (depositor defined):AID493008, AID493018, AID504382, AID504383]. In kind it is protein-complex assay.

Test [7] in a line: Luminescence Cell-Based Dose Confirmation HTS to Identify Inhibitors of Polyadenylation. The class given is functional.
The nature of test [8]: A Cell Based Secondary Assay To Explore Cytotoxicity of Compounds that Sensitize Mycobacterium Tuberculosis to Beta-Lactam Antibiotics. In kind it is functional.
The target in a further test is Aspartyl aminopeptidase (Plasmodium falciparum 3D7, UniProt Q8I2J3).
The next test deals with Procathepsin L (Homo sapiens, UniProt P07711).
For test [9], the target named is T4, Voltage-gated N-type calcium channel alpha-1B subunit/Amyloid beta A4 precursor protein-binding family A member 1 (Homo sapiens, UniProt Q00975+Q02410). In kind it is protein assay.
In a further test the target is Large T antigen (Simian virus 40, UniProt P03070). In kind it is functional, Betapolyomavirus macacae.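 Also: Confirmatory-stage PubChem screen for compounds that inhibit SV40 T antigen.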
Test [10] addresses Guanyl-specific ribonuclease T1 (Aspergillus oryzae (strain ATCC 42149 / RIB 40), UniProt P00651). Description: RNase T1 inhibitors, dose response, counter-screen for TPT1 inhibitor project, biochemical, fluorescence polarization, 1536-well (AID 2167). On the technique in general: Counterscreens check selectivity or assay interference.
Test [11] deals with Likely tRNA 2'-phosphotransferase (Candida albicans (strain SC5314 / ATCC MYA-2876) (Yeast), UniProt Q5A7N4). The experiment in a line: TPT1 tRNA phosphotransferase inhibitors, dose response, biochemical, fluorescence polarization (AID 2160). In general terms: Fluorescence polarisation rises when a labelled molecule tumbles more slowly, as on binding a larger partner.
Test [12] deals with T4, Voltage-gated N-type calcium channel alpha-1B subunit/Amyloid beta A4 precursor protein-binding family A member 1. The class given is protein assay. This is another data set of the same source.
Test [13] addresses Polyadenylate-binding protein 1 (Homo sapiens, UniProt P11940). Description: PABP poly(A) RNA binding inhibitors, primary screen, biochemical, fluorescence polarization, uHTS (AID 2014).
Test [14] concerns the target DNA dC->dU-editing enzyme APOBEC-3G (Homo sapiens, UniProt Q9HC16). The class given is functional.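 Also: Dose-response counterscreen measuring inhibition of APOBEC3G DNA deaminase activity, run while confirming APOBEC3A inhibitors.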
Test [15] concerns the target DNA dC->dU-editing enzyme APOBEC-3A (Homo sapiens, UniProt P31941). The experiment in a line: Dose Response confirmation of small molecule APOBEC3A DNA Deaminase Inhibitors via a fluorescence-based single-stranded DNA deaminase assay. [Related pubchem assays (depositor defined):AID493011, AID493024]. In kind it is functional.
Test [16] has as its target Eukaryotic translation initiation factor 4H (Homo sapiens, UniProt Q15056). Description: human eIF4H binding inhibitors, primary screen, translation initiation inhibitor project, biochemical, uHTS, fluorescence polarization (AID 2012).
A further test concerns the target Cytochrome P450 2D6 (Homo sapiens, UniProt P10635). The experiment in a line: qHTS Assay for Inhibitors and Substrates of Cytochrome P450 2D6. [Related pubchem assays: 410 ]. The class given is ADME. The conditions noted are these: read-out: Potency. Background: Quantitative high-throughput screening tests each substance at several concentrations.
Test [17] deals with T5, Histone-lysine N-methyltransferase NSD2 (Homo sapiens, UniProt O96028).
T5 sequence (O96028 whole entry): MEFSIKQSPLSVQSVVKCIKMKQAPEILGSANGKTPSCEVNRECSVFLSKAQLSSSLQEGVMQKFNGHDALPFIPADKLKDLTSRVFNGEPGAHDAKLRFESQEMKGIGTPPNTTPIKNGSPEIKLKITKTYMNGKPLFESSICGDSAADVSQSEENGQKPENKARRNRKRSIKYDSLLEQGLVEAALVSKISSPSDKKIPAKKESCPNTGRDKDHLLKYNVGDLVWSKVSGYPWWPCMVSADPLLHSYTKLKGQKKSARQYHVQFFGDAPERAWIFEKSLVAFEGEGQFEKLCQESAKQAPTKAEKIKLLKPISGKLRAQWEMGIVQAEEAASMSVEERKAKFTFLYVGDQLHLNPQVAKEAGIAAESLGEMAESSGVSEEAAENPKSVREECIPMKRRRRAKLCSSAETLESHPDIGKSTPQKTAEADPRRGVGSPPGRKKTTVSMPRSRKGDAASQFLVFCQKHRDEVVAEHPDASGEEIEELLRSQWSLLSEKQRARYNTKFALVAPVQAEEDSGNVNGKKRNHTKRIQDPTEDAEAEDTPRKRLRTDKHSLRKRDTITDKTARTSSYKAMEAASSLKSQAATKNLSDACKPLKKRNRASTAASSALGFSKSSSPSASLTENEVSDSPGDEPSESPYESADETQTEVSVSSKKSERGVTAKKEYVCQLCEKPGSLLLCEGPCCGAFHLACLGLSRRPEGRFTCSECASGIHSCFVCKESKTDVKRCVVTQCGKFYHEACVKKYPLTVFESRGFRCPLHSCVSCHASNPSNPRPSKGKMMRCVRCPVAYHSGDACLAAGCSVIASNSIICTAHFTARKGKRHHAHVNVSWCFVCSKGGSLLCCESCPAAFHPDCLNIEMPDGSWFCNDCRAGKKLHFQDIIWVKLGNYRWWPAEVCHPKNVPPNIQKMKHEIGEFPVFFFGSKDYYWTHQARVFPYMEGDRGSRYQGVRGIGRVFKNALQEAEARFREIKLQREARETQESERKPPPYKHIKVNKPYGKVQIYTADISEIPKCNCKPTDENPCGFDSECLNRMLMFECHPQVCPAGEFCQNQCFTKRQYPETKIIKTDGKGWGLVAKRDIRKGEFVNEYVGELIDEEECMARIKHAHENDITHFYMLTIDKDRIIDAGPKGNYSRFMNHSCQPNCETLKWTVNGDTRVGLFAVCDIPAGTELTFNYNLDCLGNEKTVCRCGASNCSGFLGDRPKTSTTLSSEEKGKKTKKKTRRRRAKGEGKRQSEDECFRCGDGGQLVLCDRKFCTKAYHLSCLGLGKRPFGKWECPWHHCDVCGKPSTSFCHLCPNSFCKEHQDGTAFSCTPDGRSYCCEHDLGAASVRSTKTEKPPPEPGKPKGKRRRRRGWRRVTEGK
The class given is biochemical.

Test [18] deals with Lysosomal acid glucosylceramidase (Homo sapiens, UniProt P04062). The experiment in a line: Dose response cell-based high throughput screening assay to identify enhancers of beta-glucosidase activity. [Related pubchem assays: 784 ]. The class given is functional.
Test [19] has as its target Peroxisome proliferator-activated receptor gamma/Nuclear receptor corepressor 2 (Homo sapiens, UniProt P37231+Q9Y618). The class given is functional.
Test [20] has as its target Photoreceptor-specific nuclear receptor (Homo sapiens, UniProt Q9Y5X4). In kind it is functional.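 Also: potency for compounds that break the NR2E3 corepressor complex and count as activators.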

Calls of active or inactive are those of the source. A value given as a limit tells only on which side of the number the result lay.

T1 sequence (Q9NZJ5 whole entry): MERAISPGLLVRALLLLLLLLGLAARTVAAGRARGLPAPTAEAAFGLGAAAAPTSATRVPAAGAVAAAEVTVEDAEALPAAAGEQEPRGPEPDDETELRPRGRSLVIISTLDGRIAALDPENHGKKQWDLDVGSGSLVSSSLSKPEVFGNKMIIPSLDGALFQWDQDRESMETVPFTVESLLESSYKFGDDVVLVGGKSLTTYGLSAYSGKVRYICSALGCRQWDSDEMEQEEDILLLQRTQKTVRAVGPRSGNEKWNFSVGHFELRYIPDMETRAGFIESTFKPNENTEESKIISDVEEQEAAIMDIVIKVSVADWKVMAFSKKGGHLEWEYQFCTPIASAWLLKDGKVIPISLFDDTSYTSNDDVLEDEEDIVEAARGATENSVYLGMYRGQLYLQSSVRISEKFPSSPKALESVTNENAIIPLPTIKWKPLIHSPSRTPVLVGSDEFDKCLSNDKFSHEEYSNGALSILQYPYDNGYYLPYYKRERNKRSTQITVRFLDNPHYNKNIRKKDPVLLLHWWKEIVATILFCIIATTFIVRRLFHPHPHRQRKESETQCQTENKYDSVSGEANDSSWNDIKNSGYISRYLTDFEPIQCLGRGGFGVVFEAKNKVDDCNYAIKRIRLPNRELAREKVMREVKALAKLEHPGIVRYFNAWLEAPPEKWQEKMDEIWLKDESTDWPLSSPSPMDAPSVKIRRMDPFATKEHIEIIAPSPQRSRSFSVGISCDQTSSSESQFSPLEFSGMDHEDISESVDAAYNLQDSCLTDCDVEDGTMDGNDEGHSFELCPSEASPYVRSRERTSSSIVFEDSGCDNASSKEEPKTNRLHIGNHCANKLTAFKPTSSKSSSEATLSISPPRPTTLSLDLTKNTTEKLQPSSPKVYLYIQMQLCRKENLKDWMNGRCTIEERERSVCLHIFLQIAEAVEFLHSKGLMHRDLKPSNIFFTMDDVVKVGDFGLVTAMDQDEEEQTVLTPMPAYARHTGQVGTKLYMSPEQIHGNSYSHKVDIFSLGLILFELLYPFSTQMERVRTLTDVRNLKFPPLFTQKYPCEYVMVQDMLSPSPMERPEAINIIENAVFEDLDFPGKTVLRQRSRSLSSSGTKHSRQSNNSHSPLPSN
T4 sequence (Q00975 whole entry): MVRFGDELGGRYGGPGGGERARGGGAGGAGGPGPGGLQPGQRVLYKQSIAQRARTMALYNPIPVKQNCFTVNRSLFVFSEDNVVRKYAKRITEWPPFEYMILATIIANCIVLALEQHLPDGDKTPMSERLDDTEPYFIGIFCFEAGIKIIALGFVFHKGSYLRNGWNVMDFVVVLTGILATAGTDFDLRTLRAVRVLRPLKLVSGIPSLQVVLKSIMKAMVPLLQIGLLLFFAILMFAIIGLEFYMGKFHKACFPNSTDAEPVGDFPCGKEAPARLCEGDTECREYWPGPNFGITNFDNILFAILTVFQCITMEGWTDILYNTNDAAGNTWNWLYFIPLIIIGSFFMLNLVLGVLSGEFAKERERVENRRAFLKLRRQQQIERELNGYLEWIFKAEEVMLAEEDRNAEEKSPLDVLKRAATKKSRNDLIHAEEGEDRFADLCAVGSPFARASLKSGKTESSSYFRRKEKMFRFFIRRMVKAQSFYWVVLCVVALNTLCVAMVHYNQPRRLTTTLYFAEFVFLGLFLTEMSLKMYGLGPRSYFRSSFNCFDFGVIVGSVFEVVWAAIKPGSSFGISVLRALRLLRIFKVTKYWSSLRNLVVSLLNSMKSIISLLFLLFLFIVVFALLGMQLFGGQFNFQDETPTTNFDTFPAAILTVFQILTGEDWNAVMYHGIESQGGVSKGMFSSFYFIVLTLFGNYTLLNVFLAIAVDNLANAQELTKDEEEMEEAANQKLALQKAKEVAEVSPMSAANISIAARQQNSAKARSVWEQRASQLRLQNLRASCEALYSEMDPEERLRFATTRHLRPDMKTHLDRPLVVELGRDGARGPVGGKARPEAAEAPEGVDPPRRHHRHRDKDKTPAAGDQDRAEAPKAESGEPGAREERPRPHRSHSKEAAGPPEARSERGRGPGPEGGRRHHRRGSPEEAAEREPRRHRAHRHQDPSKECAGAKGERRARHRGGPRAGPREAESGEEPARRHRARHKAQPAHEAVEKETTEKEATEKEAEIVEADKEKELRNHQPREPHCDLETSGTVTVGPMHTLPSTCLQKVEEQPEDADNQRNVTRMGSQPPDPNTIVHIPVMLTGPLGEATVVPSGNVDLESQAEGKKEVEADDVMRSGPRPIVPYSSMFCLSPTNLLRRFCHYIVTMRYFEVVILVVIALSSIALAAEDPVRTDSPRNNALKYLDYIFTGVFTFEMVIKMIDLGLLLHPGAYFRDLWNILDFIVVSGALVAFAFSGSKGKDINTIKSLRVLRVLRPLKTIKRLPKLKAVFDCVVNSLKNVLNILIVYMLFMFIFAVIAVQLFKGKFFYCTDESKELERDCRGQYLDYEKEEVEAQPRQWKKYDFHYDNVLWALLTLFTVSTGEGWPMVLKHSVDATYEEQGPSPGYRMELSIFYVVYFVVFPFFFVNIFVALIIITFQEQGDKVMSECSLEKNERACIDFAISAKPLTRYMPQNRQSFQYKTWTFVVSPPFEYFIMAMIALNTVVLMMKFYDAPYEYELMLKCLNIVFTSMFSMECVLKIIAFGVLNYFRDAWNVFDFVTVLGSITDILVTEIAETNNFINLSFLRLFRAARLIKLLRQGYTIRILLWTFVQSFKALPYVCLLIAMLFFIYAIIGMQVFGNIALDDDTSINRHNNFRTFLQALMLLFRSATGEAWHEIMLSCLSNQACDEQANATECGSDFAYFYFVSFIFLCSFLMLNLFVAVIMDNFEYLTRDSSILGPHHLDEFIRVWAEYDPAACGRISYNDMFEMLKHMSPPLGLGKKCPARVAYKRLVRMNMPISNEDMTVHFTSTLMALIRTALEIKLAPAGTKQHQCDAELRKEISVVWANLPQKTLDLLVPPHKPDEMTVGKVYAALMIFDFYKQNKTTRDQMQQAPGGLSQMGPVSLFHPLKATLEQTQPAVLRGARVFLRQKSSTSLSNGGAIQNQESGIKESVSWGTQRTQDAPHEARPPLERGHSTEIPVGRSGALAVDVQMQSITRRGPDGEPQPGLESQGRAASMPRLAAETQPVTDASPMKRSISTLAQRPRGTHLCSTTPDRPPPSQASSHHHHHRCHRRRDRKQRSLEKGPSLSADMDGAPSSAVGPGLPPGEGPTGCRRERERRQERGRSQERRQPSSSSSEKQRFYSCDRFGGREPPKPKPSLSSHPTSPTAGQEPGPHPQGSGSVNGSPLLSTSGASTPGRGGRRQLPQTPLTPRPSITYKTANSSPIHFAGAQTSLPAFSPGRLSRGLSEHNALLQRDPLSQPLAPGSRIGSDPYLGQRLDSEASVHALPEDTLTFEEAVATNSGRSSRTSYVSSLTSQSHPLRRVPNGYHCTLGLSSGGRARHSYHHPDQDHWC
T4 sequence (Q02410 whole entry): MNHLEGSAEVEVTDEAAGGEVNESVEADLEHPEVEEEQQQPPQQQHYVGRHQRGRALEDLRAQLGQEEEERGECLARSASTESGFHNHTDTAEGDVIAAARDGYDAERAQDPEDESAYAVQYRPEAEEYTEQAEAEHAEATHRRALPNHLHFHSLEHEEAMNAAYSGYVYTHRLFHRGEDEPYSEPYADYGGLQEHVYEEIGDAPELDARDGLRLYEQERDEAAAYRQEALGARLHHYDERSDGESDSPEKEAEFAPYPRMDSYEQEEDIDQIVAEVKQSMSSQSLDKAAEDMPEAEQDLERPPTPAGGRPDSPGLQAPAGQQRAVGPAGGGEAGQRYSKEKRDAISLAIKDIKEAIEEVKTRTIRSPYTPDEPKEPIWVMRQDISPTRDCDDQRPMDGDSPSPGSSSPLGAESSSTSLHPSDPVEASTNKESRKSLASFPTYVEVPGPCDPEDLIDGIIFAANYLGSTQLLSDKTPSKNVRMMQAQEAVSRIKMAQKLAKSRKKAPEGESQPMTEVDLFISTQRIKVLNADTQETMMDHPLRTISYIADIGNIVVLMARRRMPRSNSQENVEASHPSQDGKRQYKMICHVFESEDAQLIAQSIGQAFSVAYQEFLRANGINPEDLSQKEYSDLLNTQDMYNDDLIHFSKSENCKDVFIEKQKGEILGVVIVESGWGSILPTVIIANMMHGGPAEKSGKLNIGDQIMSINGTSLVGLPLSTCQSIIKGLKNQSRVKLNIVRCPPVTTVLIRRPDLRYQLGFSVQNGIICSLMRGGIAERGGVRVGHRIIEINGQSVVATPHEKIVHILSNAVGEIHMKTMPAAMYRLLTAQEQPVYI
Sequence of Aspartyl aminopeptidase (Q8I2J3 whole entry): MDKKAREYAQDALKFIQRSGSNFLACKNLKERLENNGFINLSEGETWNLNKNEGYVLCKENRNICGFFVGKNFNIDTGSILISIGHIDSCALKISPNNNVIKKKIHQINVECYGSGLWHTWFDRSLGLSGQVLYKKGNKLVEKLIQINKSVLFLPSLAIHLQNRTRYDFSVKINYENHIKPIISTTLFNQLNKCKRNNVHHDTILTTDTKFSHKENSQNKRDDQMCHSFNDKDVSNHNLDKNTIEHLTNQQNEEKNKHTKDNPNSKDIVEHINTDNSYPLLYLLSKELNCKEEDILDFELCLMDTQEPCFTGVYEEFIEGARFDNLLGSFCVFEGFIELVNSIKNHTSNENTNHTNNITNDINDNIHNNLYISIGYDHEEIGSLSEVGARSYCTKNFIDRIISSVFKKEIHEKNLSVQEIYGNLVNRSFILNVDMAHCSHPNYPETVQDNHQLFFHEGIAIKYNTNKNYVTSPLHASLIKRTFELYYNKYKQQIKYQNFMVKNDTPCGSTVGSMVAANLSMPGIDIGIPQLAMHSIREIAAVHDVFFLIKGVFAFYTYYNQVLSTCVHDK
Sequence of Guanyl-specific ribonuclease T1 (P00651 whole entry): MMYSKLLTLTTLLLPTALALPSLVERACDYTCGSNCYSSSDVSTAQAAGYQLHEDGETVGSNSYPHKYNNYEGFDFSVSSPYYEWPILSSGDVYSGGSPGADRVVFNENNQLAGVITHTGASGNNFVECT

On to `CC(=O)c1ccc(S(=O)(=O)N2CCN(CC#N)CC2)cc1`, for which the EC50 in test [1] and in test [2] was > 55.7 µM (not active) each time.

Regarding `Fc1ccccc1N1CC(c2ccccc2)C(c2cccs2)=N1` (stereo not given), the EC50 in test [3] is > 100 µM (not active).

Regarding `CCOc1cc(/C=C2\N=C(SC(C)C(N)=O)N(c3ccc(OC(F)F)cc3)C2=O)ccc1O` (stereo not given), the IC50 in [4] is 91.2 µM (active). Besides, the CC50 in test [5] is 51.2 µM (active). Also, the EC50 is 19.4 µM (active) in test [6]; 8.42 µM (active) at Troponin, cardiac muscle; 10.7 µM (active) in [7].

Turning to `CCOc1ccccc1C(=O)Nc1cccc(-c2ccc3nncn3n2)c1`, in test [8], the CC50 was > 40 µM (active).

Consider `O=C(Nn1cnnc1)c1csc2ccccc12`, for which the figures for the concentration for half-maximal inhibition (IC50) at Aspartyl aminopeptidase and against Procathepsin L were 2.17 µM (active) and > 59.6 µM (not active), respectively.

`CC1=C(C#N)C(=O)N(C2CCS(=O)(=O)C2)C(=O)/C1=C\c1ccco1` (stereo not given): the half-inhibitory concentration (IC50) in test [9] was 4.68 µM (active); on Large T antigen it was 7.93 µM (active); in test [10] it was > 55.7 µM (not active); in test [11], 0.142 µM (active); in [12], > 56.8 µM (not active).

In the case of `COCCN1C(NCCCOC(C)C)=N[C@@H](c2ccccc2)C(C(=O)OC)=C1C`, the IC50 in test [13] is 8.01 µM (active); in test [14] it was 4.32 µM (active); in test [15], 5.67 µM (active); in test [16] it was > 100 µM (inactive).

Consider `CC12C=C(/C=C/c3ccc(Br)cc3)C(C)(C1)C(c1ccc(Br)cc1)CC2=O` (stereo not given), for which the AC50 on Cytochrome P450 2D6 is 7.94 µM (inconclusive).

Take `CCN(CC)CCCNC(=O)c1cc(-c2cccc(Cl)c2)on1`: the AC50 in test [17] was > 20 µM (inactive). The EC50 in test [18] is given as > 50 µM (not active).

As to `COc1cccc2cc(C(=O)C3=C(O)C(=O)N(CCN4CCOCC4)C3c3cccs3)oc12` (stereo not given), the results for the IC50 in [19] and in [20] were 13.7 µM (not active) and > 39.8 µM (not active), respectively.

For orientation: EC50 means the concentration needed to bring the measured effect to its halfway point. The IC50 is the midpoint of a concentration-inhibition curve. Broadly, the CC50 is the concentration giving 50% cytotoxicity.
